Experimental data as given in US12275745B2, “Therapeutic compounds and methods of use” (Genentech, Inc., priority 2021, dated 2025).

Columns and labels:
TEAD2 = TEAD2 (Homo sapiens, UniProt Q15562); test: biochemical;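 also: TR-FRET competition assay with His-tagged TEAD protein and a biotinylated lipid pocket probe, where probe displacement by compound lowers the signal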
Procedure: (§1) His-tagged TEAD proteins are pre-incubated with TEAD project compounds for 30 minutes or 4 hours at room temperature. Biotinylated lipid pocket probes are then added to the TEAD/Compound mixture and incubated for 60 minutes at room temperature. The lipid pocket probe competes with the test compound for the TEAD lipid pocket until equilibrium is reached. After 60 minutes, Europium labelled anti-His (Perkin Elmer #AD0110) and XL665 labelled streptavidin (CIS Bio 610SAXAC) are added to the TEAD/test compound/lipid pocket mixture and incubated for 30 minutes or 4 hours. TR-FRET values are then measured using an EnVision multi-label plate reader (Perkin Elmer Cat #2104-001 0A.) If the lipid pocket probe binds to TEAD as expected, a TR-FRET signal results from the proximity of anti-His Eu and XL665. If a TEAD lipid pocket binder such as binds and displaces the lipid pocket probe, the disruption of the TEAD:probe interaction results in a decrease in TR-FRET signal. The potency of compounds as TEAD lipid pocket binders is determined by IC50 value generated using a non-linear 4 parameter curve fit.

TEAD1 = TEAD1 (Homo sapiens, UniProt P28347); test: TR-FRET (Lipid HTRF) TEAD lipid pocket probe displacement assay, TEAD1; assay type: binding; conditions: His-tagged TEAD1, biotinylated lipid pocket probe, 4 hours
TEAD1, sequence (P28347 whole entry, species assumed): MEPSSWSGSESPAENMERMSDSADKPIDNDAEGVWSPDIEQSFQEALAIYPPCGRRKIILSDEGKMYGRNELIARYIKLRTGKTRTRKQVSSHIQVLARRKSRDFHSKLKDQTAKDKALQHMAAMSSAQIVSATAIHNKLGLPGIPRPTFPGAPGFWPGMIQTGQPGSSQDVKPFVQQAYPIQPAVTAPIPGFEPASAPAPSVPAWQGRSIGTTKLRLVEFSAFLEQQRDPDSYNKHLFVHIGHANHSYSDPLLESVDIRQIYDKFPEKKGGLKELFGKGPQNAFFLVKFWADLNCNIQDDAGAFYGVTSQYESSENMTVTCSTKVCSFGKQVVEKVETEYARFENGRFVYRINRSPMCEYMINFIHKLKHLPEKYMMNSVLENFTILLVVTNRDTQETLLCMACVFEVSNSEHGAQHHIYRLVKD
Procedure: as §1

TEAD3 = TEAD3 (Homo sapiens, UniProt Q99594); test: TR-FRET (Lipid HTRF) TEAD lipid pocket probe displacement assay, TEAD3; assay type: binding; conditions: His-tagged TEAD3, biotinylated lipid pocket probe, 4 hours
TEAD3, sequence (Q99594 whole entry, species assumed): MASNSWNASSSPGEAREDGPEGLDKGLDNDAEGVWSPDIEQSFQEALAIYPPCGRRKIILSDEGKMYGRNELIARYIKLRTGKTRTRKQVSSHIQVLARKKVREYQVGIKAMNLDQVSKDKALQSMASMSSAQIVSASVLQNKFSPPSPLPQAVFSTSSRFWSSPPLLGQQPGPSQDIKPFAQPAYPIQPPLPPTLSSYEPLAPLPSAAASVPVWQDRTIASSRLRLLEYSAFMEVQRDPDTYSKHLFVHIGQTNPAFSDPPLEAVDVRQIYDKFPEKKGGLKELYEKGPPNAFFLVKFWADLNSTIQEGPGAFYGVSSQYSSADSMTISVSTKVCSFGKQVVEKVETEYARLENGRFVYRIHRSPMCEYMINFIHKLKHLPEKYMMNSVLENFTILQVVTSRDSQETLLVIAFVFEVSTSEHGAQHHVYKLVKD
Procedure: as §1

TEAD4 = TEAD4 (Homo sapiens, UniProt Q15561); test: TR-FRET (Lipid HTRF) TEAD lipid pocket probe displacement assay, TEAD4; assay type: binding; conditions: His-tagged TEAD4, biotinylated lipid pocket probe, 4 hours
TEAD4, sequence (Q15561 whole entry, species assumed): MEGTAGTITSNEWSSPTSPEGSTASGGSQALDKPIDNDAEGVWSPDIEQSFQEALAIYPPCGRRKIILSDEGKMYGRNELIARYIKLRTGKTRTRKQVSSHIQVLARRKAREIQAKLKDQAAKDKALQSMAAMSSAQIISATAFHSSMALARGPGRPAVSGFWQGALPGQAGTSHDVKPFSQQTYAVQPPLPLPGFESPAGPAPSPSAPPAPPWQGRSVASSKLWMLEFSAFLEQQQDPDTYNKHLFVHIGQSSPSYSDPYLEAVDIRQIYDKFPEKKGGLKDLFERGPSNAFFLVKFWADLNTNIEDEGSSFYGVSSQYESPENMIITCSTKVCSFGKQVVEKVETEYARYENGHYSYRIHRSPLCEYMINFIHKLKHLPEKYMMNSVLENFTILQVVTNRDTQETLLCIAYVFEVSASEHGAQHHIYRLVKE
Procedure: as §1

TEAD2, sequence (Q15562 whole entry, species assumed): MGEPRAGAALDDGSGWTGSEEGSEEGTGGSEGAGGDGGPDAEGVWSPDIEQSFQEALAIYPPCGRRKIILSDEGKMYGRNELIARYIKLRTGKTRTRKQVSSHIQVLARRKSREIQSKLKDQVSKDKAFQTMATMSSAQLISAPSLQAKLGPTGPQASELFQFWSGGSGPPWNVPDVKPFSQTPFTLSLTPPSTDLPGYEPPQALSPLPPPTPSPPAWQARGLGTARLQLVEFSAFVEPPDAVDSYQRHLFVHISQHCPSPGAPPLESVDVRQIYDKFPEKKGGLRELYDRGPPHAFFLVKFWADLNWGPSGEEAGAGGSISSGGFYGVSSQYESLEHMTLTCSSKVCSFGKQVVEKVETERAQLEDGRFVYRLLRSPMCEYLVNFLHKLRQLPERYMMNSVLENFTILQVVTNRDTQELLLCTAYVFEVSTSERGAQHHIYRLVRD

| Compound | IC50 (TEAD2) | IC50 (TEAD1) | IC50 (TEAD3) | IC50 (TEAD4) |
| --- | --- | --- | --- | --- |
| C=CC(=O)NCc1cc(-c2ccc(OC(F)(F)F)cc2)c2nccnc2c1[C@H](C)O (single isomer, unassigned) [Compound 83] | 6 nM | 44 nM | 190 nM | 95 nM |
| C=CC(=O)NCc1cc(-c2ccc(OC(F)(F)F)cc2)c2c(c1[C@@H](O)CC#N)CCO2 (single isomer, unassigned) [Compound 92] | 16 nM | 760 nM | 1600 nM | 340 nM |
| C=CC(=O)NCc1cc(-c2ccc(OC(F)(F)F)cc2)c2ncoc2c1[C@H](O)CO (single isomer, unassigned) [Compound 105] | 30 nM | 130 nM | 74 nM | 90 nM |
| C=CC(=O)N(C)Cc1cc(-c2ccc(OC(F)(F)F)cc2)c2ncoc2c1[C@H](O)CO (single isomer, unassigned) [Compound 107] | 20 nM | 100 nM | 780 nM | 36 nM |
| C=CC(=O)N(C)Cc1cc(-c2ccc(OC(F)(F)F)cc2)c2ncoc2c1[C@@H](O)CO (single isomer, unassigned) [Compound 108] | 76 nM | 130 nM | 47 nM | 24 nM |
| C=CC(=O)NCc1cc(-c2ccc(OC(F)(F)F)cc2)c2ncn(C)c2c1[C@H](C)O (single isomer, unassigned) [Compound 139] | 6.8 nM | 160 nM | 380 nM | 100 nM |
| C=CC(=O)NCc1cc(Oc2ccc(C(F)(F)F)cc2)c2ncccc2c1[C@@H](O)CO (single isomer, unassigned) [Compound 148] | 8.7 nM | 36 nM | 470 nM | 540 nM |
| C=CC(=O)NCc1cc(-c2ccc(S(F)(F)(F)(F)F)cc2)c2c(c1[C@@H](O)CO)CCO2 (stereo in doubt) [Compound 97, N-[[7-[4-(pentafluoro-6-sulfanyl)phenyl]-4-[rac-(1S)-1,2-dihydroxyethyl]-2,3-dihydrobenzofuran-5-yl]methyl]prop-2-enamide] | 19 nM | 27 nM | 590 nM | 18 nM |
| C=CC(=O)N(C)Cc1nc(-c2ccc(OC(F)(F)F)cc2)c2ncsc2n1 [Compound 11, N-methyl-N-[[7-[4-(trifluoromethoxy)phenyl]thiazolo[5,4-d]pyrimidin-5-yl]methyl]prop-2-enamide] | 100 nM | 78 nM | 74 nM | 8.1 nM |
| C=CC(=O)NCc1cc(-c2ccc(S(F)(F)(F)(F)F)cc2)c2c(c1CO)CCO2 [Compound 24, N-((4-(Hydroxymethyl)-7-(4-(pentafluoro-16-sulfaneyl)phenyl)-2,3-dihydrobenzofuran-5-yl)methyl)acrylamide] | 120 nM | 32 nM | 39 nM | 27 nM |
| C=CC(=O)NCc1cc(-c2ccc(OC(F)(F)F)cc2)c2nccn2c1CC [Compound 26, N-((5-ethyl-8-(4-(trifluoromethoxy)phenyl)imidazo[1,2-a]pyridin-6-yl)methyl)acrylamide] | 62 nM | 140 nM | 510 nM | 180 nM |
| C=CC(=O)NCc1cc(-c2ccc(OC(F)(F)F)cc2)c2ncn(C)c2c1Cc1cn[nH]c1 [Compound 34, N-[[3-methyl-4-(1H-pyrazol-4-ylmethyl)-7-[4-(trifluoromethoxy)phenyl]benzimidazol-5-yl]methyl]prop-2-enamide] | 59 nM | 190 nM | 3600 nM | 62 nM |
| C=CC(=O)NCc1nc(-c2ccc(OC(F)(F)F)cc2)c2nc(C)sc2n1 [Compound 35, N-[[2-methyl-7-[4-(trifluoromethoxy)phenyl]thiazolo[5,4-d]pyrimidin-5-yl]methyl]prop-2-enamide] | 730 nM | 11 nM | 790 nM | 330 nM |
| C=CC(=O)NCc1cc(-c2ccc(OC(F)(F)F)cc2)c2nccn2c1 [Compound 37, N-[[8-[4-(trifluoromethoxy)phenyl]imidazo[1,2-a]pyridin-6-yl]methyl]prop-2-enamide] | 960 nM | 100 nM | 230 nM | 82 nM |

More lines, in order of falling IC50 (TEAD2), values ahead:

| IC50 (TEAD2) | IC50 (TEAD1) | IC50 (TEAD3) | IC50 (TEAD4) | Compound |
| --- | --- | --- | --- | --- |
| 1300 nM | 140 nM | 410 nM | 94 nM | C=CC(=O)NCc1nc(-c2ccc(OC(F)(F)F)cc2)c2occc2n1 [Compound 10, N-[[4-[4-(trifluoromethoxy)phenyl]furo[3,2-d]pyrimidin-2-yl]methyl]prop-2-enamide] |
| 640 nM | 18 nM | 230 nM | 40 nM | C=CC(=O)NCc1nc(-c2ccc(OC(F)(F)F)cc2)c2ccccc2n1 [Compound 7, N-((4-(4-(trifluoromethoxy)phenyl)quinazolin-2-yl)methyl)acrylamide] |
| 370 nM | 690 nM | 3900 nM | 160 nM | C=CC(=O)NCc1cc(-c2ccc(OC(F)(F)F)cc2)c2c(c1-n1ccnc1)CCO2 [Compound 23, N-((4-(1H-Imidazol-1-yl)-7-(4-(trifluoromethoxy)phenyl)-2,3-dihydrobenzofuran-5-yl)methyl)acrylamide] |
| 320 nM | 86 nM | 170 nM | 35 nM | C=CC(=O)NCc1nc2c(c(-c3ccc(OC(F)(F)F)cc3)n1)OCC2 [Compound 13, N-[[4-[4-(trifluoromethoxy)phenyl]-6,7-dihydrofuro[3,2-d]pyrimidin-2-yl]methyl]prop-2-enamide] |
| 227 nM | 127 nM | 290 nM | 270 nM | C=CC(=O)NCc1cc(-c2ccc(OC(F)(F)F)cc2)c2nccn2c1CO [Compound 5, N-((5-(hydroxymethyl)-8-(4-(trifluoromethoxy)phenyl)imidazo[1,2-a]pyridin-6-yl)methyl)acrylamide] |
| 100 nM | 44 nM | 89 nM | 37 nM | C=CC(=O)N(C)Cc1cc(-c2ccc(OC(F)(F)F)cc2)c2nccn2c1CO [Compound 36, N-[[5-(hydroxymethyl)-8-[4-(trifluoromethoxy)phenyl]imidazo[1,2-a]pyridin-6-yl]methyl]-N-methyl-prop-2-enamide] |
| 58 nM | 150 nM | 71 nM | 170 nM | C=CC(=O)NCc1cc(-c2ccc(C(F)(F)F)cc2)c2ncoc2c1[C@H](O)CO (single isomer, unassigned) [Compound 109] |
| 51 nM | 24 nM | 37 nM | 37 nM | C=CC(=O)NCc1cc(-c2ccc(OC(F)(F)F)cc2)c2ncccc2c1C#N [Compound 16, N-[[5-cyano-8-[4-(trifluoromethoxy)phenyl]-6-quinolyl]methyl]prop-2-enamide] |
| 47 nM | 140 nM | 970 nM | 260 nM | C=CC(=O)NCc1cc(-c2ccc(C(F)(F)F)cc2)c2ncoc2c1[C@@H](O)CO (single isomer, unassigned) [Compound 110] |
| 35 nM | 48 nM | 99 nM | 13 nM | C=CC(=O)N(C)Cc1cc(-c2ccc(OC(F)(F)F)cc2)c2c(c1[C@@H](O)CO)CCO2 (single isomer, unassigned) [Compound 56] |
| 34 nM | 160 nM | 4800 nM | 150 nM | C=CC(=O)NCc1cc(-c2ccc(OC(F)(F)F)cc2)c2c(c1[C@H](O)[C@H](C)O)CCO2 (single isomer, unassigned) [Compound 89] |
| 34 nM | 140 nM | 11000 nM | 63 nM | C=CC(=O)NCc1cc(-c2ccc(OC(F)(F)F)cc2)c2c(c1[C@H](O)CC#N)CCO2 (single isomer, unassigned) [Compound 91] |
| 33 nM | 43 nM | 72 nM | 23 nM | C=CC(=O)NCc1cc(-c2ccc(S(F)(F)(F)(F)F)cc2)c2c(c1[C@H](O)CO)CCO2 (stereo in doubt) [Compound 96, N-[[7-[4-(Pentafluoro-6-sulfanyl)phenyl]-4-[rac-(1R)-l,2-dihydroxyethyl]-2,3-dihydrobenzofuran-5-yl]methyl]prop-2-enamide] |
| 29 nM | 170 nM | 400 nM | 63 nM | C=CC(=O)NCc1cc(-c2ccc(OC(F)(F)F)cc2)c2c(c1[C@@H](O)[C@@H](C)O)CCO2 (single isomer, unassigned) [Compound 90] |
| 24 nM | 180 nM | 1000 nM | 180 nM | C=CC(=O)NCc1cc(-c2ccc(OC(F)(F)F)cc2)c2ncoc2c1[C@@H](O)CO (single isomer, unassigned) [Compound 106] |
| 19 nM | 110 nM | 610 nM | 890 nM | C=CC(=O)NCc1cc(Oc2ccc(C(F)(F)F)cc2)c2ncccc2c1[C@H](O)CO (single isomer, unassigned) [Compound 147] |
| 15 nM | 69 nM | 1800 nM | 240 nM | C=CC(=O)NCc1cc(-c2ccc(OC(F)(F)F)cc2)c2nccnc2c1[C@@H](C)O (single isomer, unassigned) [Compound 82] |
| 10 nM | 60 nM | 3600 nM | 92 nM | C=CC(=O)NCc1cc(-c2ccc(OC(F)(F)F)cc2)c2ncn(C)c2c1[C@@H](C)O (single isomer, unassigned) [Compound 138] |
| 4.4 nM | 20 nM | 240 nM | 7.2 nM | C=CC(=O)N(C)Cc1cc(-c2ccc(OC(F)(F)F)cc2)c2c(c1[C@H](O)CO)CCO2 (single isomer, unassigned) [Compound 55] |
